Each structure is given as a SMILES string. Where two headings read alike, the source gives them in different places.

Experiment [1] deals with human recombinant serotonin (5-Hydroxytryptamine) 5-HT7 receptor (Homo sapiens, UniProt P34969). Put plainly: Serotonin 5-HT7 radioligand binding ([3H]LSD). The source says: Receptor proteins were filtered and washed, the filters were then counted to determine [^3H]LSD specifically bound.
The target of experiment [2] is T1, human recombinant histamine H2 receptor (Homo sapiens, UniProt P25021).
T1 construct: expressed in transfected cells; host or cells: Chinese hamster ovary (CHO) K1 cells
Put plainly: Histamine H2 radioligand binding ([125I]Aminopotentidine). Conditions: for inhibition at 1 µM: read-out: Histamine Binding (1 μM) H2, percent inhibition of specific binding, 1 μM. The procedure, abridged:
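Receptor source: human recombinant H2 in CHO-K1 cells, assayed in 50 mM phosphate pH 7.4. Competition against 0.1 nM [125I]aminopotentidine, 120 min, 25 °C; 3 μM tiotidine sets nonspecific binding, filter-bound counts give specific binding.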

For experiment [3], the target named is T2, human recombinant serotonin (5-Hydroxytryptamine) 5-HT6 receptor (Homo sapiens, UniProt P50406).
T2 construct: expressed in transfected cells; host or cells: human HeLa cells
The experiment is described as follows: Serotonin 5-HT6 radioligand binding ([3H]LSD). Conditions: for inhibition at 1 µM / inhibition at 0.1 µM: read-out: Inhibition of ligand binding, Serotonin 5-HT6 (percent inhibition of specific binding); for inhibition at 0.1 µM: compound at 0.1 μM. On the procedure: Compounds of the invention were incubated with 1.5 nM [3H]Lysergic acid diethylamide (LSD) for 120 min. at 37° C. […] Receptor proteins were filtered and washed, the filters were then counted to determine [3H]LSD specifically bound. Compounds were screened at 1 μM or lower, using 1% DMSO as vehicle. Biochemical assay results are presented as the percent inhibition of specific binding in Table 10.

Experiment [4] has as its target T3, human recombinant adrenergic α2B receptor (Homo sapiens, UniProt P18089).
T3 construct: expressed in transfected cells; host or cells: Chinese hamster ovary (CHO-K1) cells
T3 sequence (P18089 1-450): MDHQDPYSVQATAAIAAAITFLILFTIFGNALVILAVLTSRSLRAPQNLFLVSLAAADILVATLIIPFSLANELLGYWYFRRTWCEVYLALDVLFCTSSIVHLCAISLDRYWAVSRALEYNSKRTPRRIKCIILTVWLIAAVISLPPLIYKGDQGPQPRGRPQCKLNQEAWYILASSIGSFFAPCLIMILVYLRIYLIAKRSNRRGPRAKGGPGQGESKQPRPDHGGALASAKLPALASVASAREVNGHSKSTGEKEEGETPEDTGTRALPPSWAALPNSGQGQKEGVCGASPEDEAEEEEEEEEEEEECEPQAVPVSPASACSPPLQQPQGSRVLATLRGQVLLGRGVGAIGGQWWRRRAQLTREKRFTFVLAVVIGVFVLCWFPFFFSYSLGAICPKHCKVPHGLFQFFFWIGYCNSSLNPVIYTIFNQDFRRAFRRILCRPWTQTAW
Put plainly: Adrenergic α2B radioligand binding ([3H]Rauwolscine). The settings on record: compound at 1 μM. The procedure, abridged: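 Membranes from CHO-K1 cells expressing the receptor were incubated with 2.5 nM [3H]Rauwolscine for 60 min at 25 °C in Tris-HCl buffer pH 7.4 with MgCl2, EDTA and BSA. Non-specific binding was defined with 10 μM prazosin. Compounds were tested at ≤1 μM in 1% DMSO and read out as % inhibition of specific binding after filtration.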

The target in experiment [5] is T4, human recombinant adrenergic α2A receptor (Homo sapiens, UniProt P08913).
T4 construct: expressed in transfected cells; host or cells: insect Sf9 cells
T4 sequence (P08913 1-465): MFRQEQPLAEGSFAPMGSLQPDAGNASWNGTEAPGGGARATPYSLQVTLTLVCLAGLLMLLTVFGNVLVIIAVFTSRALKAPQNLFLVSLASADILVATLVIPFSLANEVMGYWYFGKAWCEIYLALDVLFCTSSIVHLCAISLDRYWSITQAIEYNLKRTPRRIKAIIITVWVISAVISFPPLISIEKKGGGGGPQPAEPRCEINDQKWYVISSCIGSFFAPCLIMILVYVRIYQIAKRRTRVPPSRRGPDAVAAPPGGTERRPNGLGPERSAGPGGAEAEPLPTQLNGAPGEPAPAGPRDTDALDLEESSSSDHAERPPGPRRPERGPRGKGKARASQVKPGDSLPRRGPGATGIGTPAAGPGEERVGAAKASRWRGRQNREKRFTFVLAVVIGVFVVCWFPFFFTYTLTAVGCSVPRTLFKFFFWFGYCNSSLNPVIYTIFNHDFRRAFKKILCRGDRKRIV
The experiment is described as follows: Adrenergic α2A radioligand binding ([3H]MK-912). Conditions: compound at 1 μM. The procedure, abridged: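 Sf9-expressed human receptor in 50 mM Tris-HCl pH 7.4, 12.5 mM MgCl2, 2 mM EDTA; compounds at 1 μM or lower (1% DMSO) incubated with 1 nM [3H]MK-912 for 60 min at 25° C. Non-specific binding defined with 10 μM WB-4101; filtered bound radioactivity counted, reported as percent inhibition of specific binding.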

Where [6] appears, read: compound at 1 μM, read-out: Inhibition of ligand binding, Serotonin 5-HT7 (percent inhibition of specific binding).
The mark [7] stands for this setting: percent inhibition of specific binding, read-out: Inhibition of ligand binding, Adrenergic α2B.
Setting [8] is: percent inhibition of specific binding, read-out: Inhibition of ligand binding, Adrenergic α2A.
Where [9] appears, read: […] [3H]Rauwolscine, read-out: Inhibition of ligand binding, Adrenergic α2B (percent inhibition of specific binding).
Where [10] appears, read: read-out: Inhibition of ligand binding, Adrenergic α2A (percent inhibition of specific binding).
Where [11] appears, read: percent inhibition of specific binding, 1 µM.

T2 sequence (P50406 whole entry): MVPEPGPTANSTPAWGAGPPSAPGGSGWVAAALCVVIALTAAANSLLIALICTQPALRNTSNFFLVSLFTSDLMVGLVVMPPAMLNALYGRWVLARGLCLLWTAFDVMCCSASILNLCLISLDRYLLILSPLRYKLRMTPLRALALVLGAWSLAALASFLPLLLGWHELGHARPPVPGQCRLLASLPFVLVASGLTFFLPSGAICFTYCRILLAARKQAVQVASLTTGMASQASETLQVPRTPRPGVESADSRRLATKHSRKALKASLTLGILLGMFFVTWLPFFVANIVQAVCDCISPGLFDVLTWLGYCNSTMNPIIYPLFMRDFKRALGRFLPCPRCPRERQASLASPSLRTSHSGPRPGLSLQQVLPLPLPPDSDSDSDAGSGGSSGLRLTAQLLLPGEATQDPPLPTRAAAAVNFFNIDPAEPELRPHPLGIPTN
T1 sequence (P25021 whole entry): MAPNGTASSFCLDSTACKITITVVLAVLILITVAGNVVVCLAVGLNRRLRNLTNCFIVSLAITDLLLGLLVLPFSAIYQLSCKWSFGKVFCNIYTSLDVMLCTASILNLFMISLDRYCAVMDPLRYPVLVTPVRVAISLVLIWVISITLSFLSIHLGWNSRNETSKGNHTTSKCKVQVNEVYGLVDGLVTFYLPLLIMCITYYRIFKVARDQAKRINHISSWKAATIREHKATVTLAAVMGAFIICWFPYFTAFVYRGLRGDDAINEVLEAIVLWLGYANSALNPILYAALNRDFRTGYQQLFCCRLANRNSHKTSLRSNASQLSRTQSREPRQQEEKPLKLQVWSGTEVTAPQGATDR
human recombinant serotonin (5-Hydroxytryptamine) 5-HT7 receptor, sequence (P34969 whole entry): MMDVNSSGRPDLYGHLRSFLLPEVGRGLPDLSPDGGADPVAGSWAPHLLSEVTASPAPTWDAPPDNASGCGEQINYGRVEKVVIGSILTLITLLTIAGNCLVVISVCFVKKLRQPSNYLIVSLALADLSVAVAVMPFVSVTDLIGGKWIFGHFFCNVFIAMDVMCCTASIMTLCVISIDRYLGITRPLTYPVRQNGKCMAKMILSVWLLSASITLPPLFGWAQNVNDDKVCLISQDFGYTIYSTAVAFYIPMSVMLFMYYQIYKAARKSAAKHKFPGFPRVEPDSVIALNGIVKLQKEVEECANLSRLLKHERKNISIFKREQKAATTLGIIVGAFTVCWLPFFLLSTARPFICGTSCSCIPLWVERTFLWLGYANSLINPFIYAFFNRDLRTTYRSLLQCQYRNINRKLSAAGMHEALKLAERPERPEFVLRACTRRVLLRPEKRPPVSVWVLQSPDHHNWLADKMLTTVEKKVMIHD

Usually inhibition stands for the relative decrease from the control value, in per cent. On to `CN1CCc2c(c3cc(Cl)ccc3n2/C=C(/c2ccc(F)cc2)C2CCC2)C1` [Compound 206, (E)-8-chloro-5-(2-cyclobutyl-2-(4-fluorophenyl)vinyl)-2-methyl-2,3,4,5-tetrahydro-1H-pyrido[4,3-b]indole], for which the inhibition at 1 µM in experiment [1] (setting [6]) amounted to 93%; in experiment [2] it was 102%; in experiment [3] (compound at 1 μM), 102%; in experiment [4] (setting [7]) it was 89%; in experiment [5] (setting [8]), 96%.

As to `CCC(O)(Cn1c2c(c3cc(Cl)ccc31)CN(C)CC2)c1ccc(F)cc1` (stereo not shown) [Compound 78, 1-(8-chloro-1,2,3,4-tetrahydro-2-methylpyrido[4,3-b]indol-5-yl)-2-(4-fluorophenyl)butan-2-ol], the inhibition at 1 µM came out at 97% in experiment [1] (setting [6]); 89% in experiment [2]; 101% in experiment [3] (compound at 1 μM); 87% in experiment [4] (setting [7]); 91% in experiment [5] (setting [8]). In addition, the inhibition at 0.1 µM in experiment [3] was found to be 78%.

In the case of `CCN1CCc2c(c3ccccc3n2CC(O)c2ccc(C)cc2)C1` (racemic) [Compound 44, racemic-2-(2-ethyl-1,2,3,4-tetrahydropyrido[4,3-b]indol-5-yl)-1-p-tolylethanol], the inhibition at 1 µM in experiment [1] (setting [6]) came out at 42%; in experiment [2], 26%; in experiment [3] (compound at 1 μM) it was 9%; in experiment [4] (setting [7]), 94%; in experiment [5] (setting [8]) it was 65%.

Regarding `CN1CCc2c(c3cc(Cl)ccc3n2C#Cc2ccc(Cl)cc2)C1` [Compound No. 480, 8-chloro-5-((4-chlorophenyl)ethynyl)-2-methyl-2,3,4,5-tetrahydro-1H-pyrido[4,3-b]indole], the inhibition at 1 µM in experiment [1] (setting [6]) worked out at 84%; in experiment [2], 93%; in experiment [3] (compound at 1 μM) it was 67%; in experiment [4] (setting [9]), 100%; in experiment [5] (setting [10]), 94%.

For `CCC/C=C(/Cn1c2c(c3cc(Cl)ccc31)CN(C)CC2)c1ccc(F)cc1` [Compound No. 351, (E)-8-chloro-5-(2-(4-fluorophenyl)hex-2-enyl)-2-methyl-2,3,4,5-tetrahydro-1H-pyrido[4,3-b]indole], the inhibition at 1 µM in experiment [1] (setting [6]) was 90%; in experiment [2], 100%; in experiment [3] (compound at 1 μM) it was 103%; in experiment [4] (setting [9]) it was 99%; in experiment [5] (setting [10]) it was 84%.

In the case of `C/C(=C\n1c2c(c3cc(Cl)ccc31)CN(C)CC2)c1ccccc1` [compound 106, (E)-8-chloro-2,3,4,5-tetrahydro-2-methyl-5-(2-phenylprop-1-enyl)-1H-pyrido[4,3-b]indole], the inhibition at 1 µM in experiment [1] (setting [6]) stood at 98%; in experiment [2], 99%; in experiment [3] (compound at 1 μM), 104%; in experiment [4] (setting [7]), 114%; in experiment [5] (setting [8]) it was 93%.

As for `C/C(=C\n1c2c(c3cc(Cl)ccc31)CN(C)CC2)c1ccc(Cl)cc1Cl` [Compound 210, (E)-8-chloro-5-(2-(2,4-dichlorophenyl)prop-1-enyl)-2-methyl-2,3,4,5-tetrahydro-1H-pyrido[4,3-b]indole], the “Inhibition of ligand binding, Serotonin 5-HT7 (percent inhibition of specific binding)” value in experiment [1] (compound at 1 μM, 1 µM) turned out to be 65%. For the same compound, the “Histamine Binding (1 μM) H2, percent inhibition of specific binding” value in experiment [2] (1 μM) is given as 96%. Also, in experiment [3] (compound at 1 μM, 1 µM), the “Inhibition of ligand binding, Serotonin 5-HT6 (percent inhibition of specific binding)” value is reported as 76%. In experiment [4] (setting [11]), the “Inhibition of ligand binding, Adrenergic α2B” value was determined as 102%. In addition, in experiment [5] (setting [11]), the “Inhibition of ligand binding, Adrenergic α2A” value is 79%.

On to `COC(=O)c1ccc2c(c1)c1c(n2C#Cc2ccc(F)cc2)CCN(C)C1` [Compound No. 479, methyl 5-((4-fluorophenyl)ethynyl)-2-methyl-2,3,4,5-tetrahydro-1H-pyrido[4,3-b]indole-8-carboxylate], for which the inhibition at 1 µM in experiment [1] (setting [6]) was 17%; in experiment [2], 51%; in experiment [3] (compound at 1 μM), 91%; in experiment [4] (setting [9]) it was 37%; in experiment [5] (setting [10]), 83%.

With `C/C(=C\n1c2c(c3cc(C)ccc31)CN(C)CC2)c1ccc(F)cc1` [Compound 87, (E)-5-(2-(4-fluorophenyl)prop-1-enyl)-2,3,4,5-tetrahydro-2,8-dimethyl-1H-pyrido[4,3-b]indole], the inhibition at 1 µM in experiment [1] (setting [6]) came to 100%; in experiment [2], 100%; in experiment [3] (compound at 1 μM), 101%; in experiment [4] (setting [7]), 121%; in experiment [5] (setting [8]), 95%. Moreover, the inhibition at 0.1 µM in experiment [3] was 97%.

For the compound `CCC(O)(Cn1c2c(c3cc(C)ccc31)CN(C)CC2)c1ccc(F)cc1` (stereo not shown) [Compound 175, 1-(2,8-dimethyl-3,4-dihydro-1H-pyrido[4,3-b]indol-5(2H)-yl)-2-(4-fluorophenyl)butan-2-ol], the inhibition at 1 µM in experiment [1] (setting [6]) is 79%; in experiment [2], 91%; in experiment [3] (compound at 1 μM), 100%; in experiment [4] (setting [7]), 96%; in experiment [5] (setting [8]), 94%.

With `C/C(=C\n1c2c(c3cc(Cl)ccc31)CN(C)CC2)c1ccc(F)cc1` [Compound 83, (E)-8-chloro-5-(2-(4-fluorophenyl)prop-1-enyl)-2,3,4,5-tetrahydro-2-methyl-1H-pyrido[4,3-b]indole], the “Inhibition of ligand binding, Serotonin 5-HT7 (percent inhibition of specific binding)” value in experiment [1] (compound at 0.1 μM, 0.1 µM) was determined as 96%. For the same compound, the inhibition at 0.1 µM in experiment [1] (compound at 0.1 μM, read-out: Inhibition of ligand binding, Serotonin 5-HT7 (percent inhibition of specific binding)) was found to be 82%; in experiment [3] it was 96%. Further, the inhibition at 1 µM in experiment [1] (setting [6]) was determined as 93%; in experiment [2], 99%; in experiment [3] (compound at 1 μM), 102%; in experiment [4] (setting [7]), 121%; in experiment [5] (setting [8]), 98%.

On to `CCCC/C(=C\n1c2c(c3cc(Cl)ccc31)CN(C)CC2)c1ccc(F)cc1` [Compound 208, (E)-8-chloro-5-(2-(4-fluorophenyl)hex-1-enyl)-2-methyl-2,3,4,5-tetrahydro-1H-pyrido[4,3-b]indole], for which the inhibition at 1 µM in experiment [1] (setting [6]) was 100%; in experiment [2], 102%; in experiment [3] (compound at 1 μM), 103%; in experiment [4] (setting [7]), 103%; in experiment [5] (setting [8]), 99%.

In the case of `C/C=C/C(=C\n1c2c(c3cc(Cl)ccc31)CN(C)CC2)c1ccc(F)cc1` [Compound 204, 8-chloro-5-((1E,3E)-2-(4-fluorophenyl)penta-1,3-dienyl)-2-methyl-2,3,4,5-tetrahydro-1H-pyrido[4,3-b]indole], the inhibition at 1 µM stood at 93% in experiment [1] (setting [6]); 101% in experiment [2]; 102% in experiment [3] (compound at 1 μM); 86% in experiment [4] (setting [7]); 99% in experiment [5] (setting [8]).

Values taken from patent US8906925B2, “Pyrido[4,3-B]indoles containing rigid moieties” (Medivation Technologies, Inc., priority 2008, dated 2014).
